According to paper PMC2924234 (Acta Crystallographica Section D: Biological Crystallography, 2006):

Key:
[1] = test system: male CF-1 mice; conditions: mouse, in vivo
[2] = test system: potassium ion-channel; conditions: cited from earlier work

conkunitzin-S1
95% confidence limits of the ED50 of seizure activity [1]: 0.3 to 2 nmol | Behaviour observed after injection [1]: spastic running followed by tonic extension seizures | ED50 of seizure activity [1]: 1 nmol per mouse | Pore-blocking activity [2]: potassium ion-channel pore-blocking toxin
